The IC50 is the concentration that gives 50% inhibition.

The values below come from patent US8513295B2, “Viral and fungal inhibitors” (Georgetown University, priority 2008, dated 2013).

For assay [1], the target named is T1, WNV protease (UniProt Q9Q6P4).
T1 construct: "expression and purification of WNV (EG101 strain) were similar to those described elsewhere by Mueller et al."
T1 sequence (Q9Q6P4 1506-2124): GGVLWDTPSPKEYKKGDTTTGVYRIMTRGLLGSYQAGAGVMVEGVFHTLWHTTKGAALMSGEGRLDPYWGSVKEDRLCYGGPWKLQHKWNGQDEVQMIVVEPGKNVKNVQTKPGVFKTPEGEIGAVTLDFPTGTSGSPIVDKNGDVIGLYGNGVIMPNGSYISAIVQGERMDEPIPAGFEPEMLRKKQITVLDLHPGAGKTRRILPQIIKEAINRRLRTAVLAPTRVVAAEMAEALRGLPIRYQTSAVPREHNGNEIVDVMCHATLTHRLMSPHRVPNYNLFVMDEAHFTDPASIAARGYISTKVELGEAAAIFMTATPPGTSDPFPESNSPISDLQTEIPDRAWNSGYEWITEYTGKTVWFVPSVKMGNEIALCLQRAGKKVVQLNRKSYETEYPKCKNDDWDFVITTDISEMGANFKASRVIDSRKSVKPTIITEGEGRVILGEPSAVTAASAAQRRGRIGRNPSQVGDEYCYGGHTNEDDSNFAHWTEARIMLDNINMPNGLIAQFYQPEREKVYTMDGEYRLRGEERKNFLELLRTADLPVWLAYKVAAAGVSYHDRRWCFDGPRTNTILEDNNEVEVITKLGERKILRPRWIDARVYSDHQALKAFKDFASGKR
Description: in vitro WNV protease assay (Example 2). Type of assay: biochemical, West Nile Virus (EG101 strain). The settings on record: Protease Inhibition Activity, Table 1; read-out: IC50 (μM) WNVpro. On the procedure: Procedures for expression and purification of WNV (EG101 strain) were similar to those described elsewhere by Mueller et al., Int. J. Biochem. Cell. Biol., 39: 606-14 (2007). Briefly, E. coli Top10 F′ cells (Invitrogen, Carlsbad, Calif.) were transformed with the protease expression plasmid. Cells were grown at 37° C. until the OD600 was ˜0.5. Cells were then induced with isopropyl-1-thio-β-D-galactopyranoside (American Bioanalytical, Natick, Mass.) (0.5 mM), and incubated for 4 h at 37° C. Cells were harvested by centrifugation (5000×g) for 15 min at 4° C., washed once with a buffer containing 50 mM Tris-HCl, pH 7.5, and 200 mM NaCl, centrifuged at 5000×g for 15 min at 4° C., and stored at −80° C. until used.
Proteases were purified by suspending bacterial pellets in 50 mM Hepes, pH 7.0, 500 mM NaCl, (buffer A) with 0.05 mg/ml lysozyme. Cells were incubated for 30 min on ice after addition of 10% stock solution of Triton X-100 (final concentration of 0.5%). Cells were disrupted by sonication for 2 min and the soluble fraction was collected after centrifugation (15,000×g) for 30 min at 4° C. The soluble fraction was incubated for 1 h at 4° C. with Talon resin (BD Bioscience, San Jose, Calif.) which was pre-equilibrated in buffer A. The affinity resin was centrifuged at (400×g) for 10 min at 4° C., washed three times with buffer A, and packed into a column. Washing of the column was continued with the buffer A containing 10 mM imidazole, followed by elution of the protease with buffer A containing 150 mM imidazole. The protease was concentrated and further purified by Sephadex G-75 gel filtration chromatography. The purified protease fractions were pooled and dialyzed against a buffer containing 50 mM Tris-HCl pH 7.5 and 300 mM NaCl (4×1L). Aliquots (100 μl) were frozen at −80° C.
(§1) Compounds I-1 to I-14 and II-1 to II-4 (which were synthesized using methods of organic synthesis as discussed above) were analyzed by in vitro protease assays performed in opaque 96-well plates. The enzyme kinetics was done under steady-state conditions. The standard reaction mixtures (50 μL) containing 200 mM Tris-HCl, pH 9.5, 6 mM NaCl, 30% glycerol, 67 nM of WNV protease and 50 μM inhibitor in each assay were incubated for 15 min at room temperature. Reactions were started by the addition of the substrate Boc-Gly-Lys-Arg-AMC at 100 μM final concentration and incubated at room temperature for 15 min. The absorbance of each well containing para-nitroaniline was measured at 405 nm using a spectrophotometer (Molecular Devices, Sunnyvale, Calif.); the fluorescence of AMC released from the WNV substrate was measured using a Tecan Geneios (Durham, N.C.) spectrofluorometer at excitation and emission wavelengths of 390 nm and 420 nm, respectively. Similarly, the WNV protease activity was also determined using the fluorogenic tetrapeptide substrate containing the P4-P1 residues and the fluorogenic group, 4-methoxy-β-naphthylamide (MNA), at P1′ position (Z-Val-Lys-Lys-Arg-MNA) (SEQ ID NO:1). Fluorescence was measured using a spectrofluorometer (Molecular Devices) at excitation and emission wavelengths of 290 and 420 nm, respectively. Fluorescence values obtained with no inhibitor control were taken as 100% and those in the presence of inhibitors were plotted as the percent inhibition of the control.
(§2) Compounds I-2, I-4, I-6, I-7, I-8, I-9, I-23, I-26, I-27, I-28, I-29, I-30, I-31, I-32, III-1, III-2, VI-1, VI-2, VI-3, and VI-4 were also tested for WNV protease inhibition activity according to the procedure detailed above. Further, Compounds I-28, V-1, VI-2, VI-3, VI-4, and IX-1 were tested for DENV protease inhibition activity. The structures of Compounds I-2, I-4, I-6, I-7, I-8, I-9, I-23, I-26, I-27, I-28, I-29, I-30, I-31, I-32, III-1, III-2, VI-1, VI-2, VI-3, VI-4, and IX-1 are provided above.

Assay [2] has as its target DENV protease (Dengue virus type 2, UniProt P14340). Briefly: DENV protease inhibition activity. Type of assay: biochemical. As for the experimental part:
as §1, §2

Chain of DENV protease (P14340 1394-1440): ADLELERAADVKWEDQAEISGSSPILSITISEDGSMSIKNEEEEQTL
Chain of DENV protease (P14340 1476-1653): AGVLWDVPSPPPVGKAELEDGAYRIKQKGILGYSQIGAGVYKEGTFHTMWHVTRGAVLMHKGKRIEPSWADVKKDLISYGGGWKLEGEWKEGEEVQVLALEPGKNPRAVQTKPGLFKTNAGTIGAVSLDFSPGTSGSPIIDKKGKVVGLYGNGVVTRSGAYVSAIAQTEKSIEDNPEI

Regarding `O=C(CNC(=O)Nc1cccc(Oc2ccccc2)c1)Nc1ccccc1` [Compound I-8], in assay [1], the IC50 came to 22.9 µM.
The same measure, in the same setting: then `O=C(CSc1nc2ccccc2s1)Nc1nc2ccccc2s1` [III-2], with 34.1 µM.
Consider `O=C(CNC(=O)Nc1ccc(Oc2ccccc2)cc1)Nc1ccccc1` [Compound I-9], for which the IC50 in assay [1] came out at 31.2 µM.
The same measure, in the same setting: the figure for `COc1ccc(Cc2nnc(C(Cc3ccccc3)n3sc4ccccc4c3=O)o2)cc1` (centres unmarked) [VI-1] is 26 µM.
On to `O=c1c2ccccc2sn1C(Cc1ccccc1)c1nnc(-c2cccc(F)c2)o1` (centres unmarked) [VI-4], for which the results for the IC50 in assay [1] and in assay [2] were 9.8 µM and 11.4 µM, respectively.
Regarding `O=C(Nc1ccc(Oc2ccccc2)cc1)C(Cc1ccccc1)n1sc2ccccc2c1=O` (centres unmarked) [Compound I-32], the IC50 in assay [1] is 6.6 µM.
On the same count and under the same terms, then `O=C(CSc1nc(-c2ccccc2)no1)Nc1nc2ccccc2[nH]1` [III-1], with 14.7 µM.
`O=C(CSc1nc2ccccc2c(=O)[nH]1)Nc1cccc(Oc2ccccc2)c1` [IX-1]: in assay [2], the IC50 was found to be 89 µM.
In the case of `O=C(CC(C(=O)Nc1cccc(Oc2ccccc2)c1)N1Cc2ccccc2C1=O)OCc1ccccc1` (centres unmarked) [Compound I-26], the IC50 in assay [1] was found to be 13 µM.
Still for that read-out and setting: then `O=C(CNC(=O)Nc1cccc(Oc2ccccc2)c1)NCc1ccccc1` [Compound I-6], with 22.1 µM; and `O=C(Nc1cccc(Oc2ccccc2)c1)C(Cc1ccccc1)N1Cc2ccccc2C1=O` (centres unmarked) [Compound I-2], with 11.1 µM.
Still for that read-out and setting: the figure for `O=C(CCC(C(=O)Nc1cccc(Oc2ccccc2)c1)N1Cc2ccccc2C1=O)OCc1ccccc1` (centres unmarked) [Compound I-27] is 22.7 µM; for `O=C(Nc1ccc(Oc2ccccc2)cc1)C(C(=O)OCc1ccccc1)n1sc2ccccc2c1=O` (centres unmarked) [Compound I-29] it is 9 µM.
The same measure, in the same setting: the figure for `O=C(Nc1cccc(Oc2ccccc2)c1)C(Cc1ccccc1)n1sc2ccccc2c1=O` (centres unmarked) [Compound I-31] is 2.6 µM; for `O=C(Nc1ccc(Oc2ccccc2)cc1)C(Cc1ccccc1)N1Cc2ccccc2C1=O` (centres unmarked) [Compound I-4] it is 19.7 µM; for `O=C(CCCCc1ccccc1)Nc1cccc(Oc2ccccc2)c1` [Compound I-23] it is 38.6 µM.
Turning to `O=C(CCC(C(=O)Nc1ccc(Oc2ccccc2)cc1)N1Cc2ccccc2C1=O)OCc1ccccc1` (centres unmarked) [Compound I-28], the IC50 in assay [1] amounted to 15.5 µM; in assay [2], 45 µM.
As for `O=c1c2ccccc2sn1C(Cc1ccccc1)c1nnc(-c2cccc(Cl)c2)o1` (centres unmarked) [VI-3], the IC50 in assay [1] is 7.6 µM; in assay [2], 10.6 µM.
Regarding `O=C(Nc1ccccc1Oc1ccccc1)C(Cc1ccccc1)n1sc2ccccc2c1=O` (centres unmarked) [Compound I-30], the IC50 in assay [1] is 6 µM.
Consider `O=C1c2ccccc2CN1C(Cc1ccccc1)c1nnc(-c2cccc(Cl)c2)o1` (centres unmarked) [Compound V-1], for which, in assay [2], half-maximal inhibition (IC50) was put at 12.2 µM.
Consider `O=C(CNC(=O)Nc1ccc(Oc2ccccc2)cc1)NCc1ccccc1` [Compound I-7], for which the IC50 in assay [1] is 26.1 µM.
As for `O=c1c2ccccc2sn1C(Cc1ccccc1)c1nnc(Cc2ccccc2)o1` (centres unmarked) [VI-2], the IC50 in assay [1] turned out to be 2.1 µM; in assay [2], 9.6 µM.
